In PMC10551445, “Piperlongumine is a ligand for the orphan nuclear receptor 4A1 (NR4A1)” (Frontiers in Pharmacology, 2023) one finds Kd data, which are given here for one compound.

The experiment deals with orphan nuclear receptor 4A1 (NR4A1) (Homo sapiens, UniProt P22736). Description: ITC with the NR4A1 LBD; also Trp fluorescence quenching (KD […]) and GAL4-NR4A1 reporter assay. The class given is binding. In general terms: Reporter assays use an easily measured gene product as a stand-in for the process of interest.
orphan nuclear receptor 4A1 (NR4A1), sequence (P22736 360-598 limits assumed): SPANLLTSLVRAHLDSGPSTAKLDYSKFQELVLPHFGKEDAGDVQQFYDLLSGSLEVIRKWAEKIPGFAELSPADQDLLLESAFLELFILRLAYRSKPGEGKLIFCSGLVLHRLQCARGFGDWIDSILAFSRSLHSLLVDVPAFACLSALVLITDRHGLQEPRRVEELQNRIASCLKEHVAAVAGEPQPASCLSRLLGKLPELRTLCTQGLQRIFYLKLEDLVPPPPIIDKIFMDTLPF

Usually Kd stands for the equilibrium constant for the complex coming apart. Lower therefore signals higher affinity. As to `COc1cc(/C=C/C(=O)N2CCC=CC2=O)cc(OC)c1OC` [piperlongumine], the Kd stood at 4.97 µM.
